# From patent US20070167492A1, “Molluscicidal agents” (priority 2003, published 2007)
# Experiments:
# [1] = system: Deroceras reticulatum (grey field slug); assay: Example 1: pot test, treated winter wheat seed with 5 adult slugs per pot, 14 days; format: in vivo
# In short: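 Fludioxonil-disinfected winter wheat seed (Kampa, 40 per pot) sown on quartz sand over potting soil with 5 adult slugs per pot; ±15° C., ±90% RH, 12 h light/12 h dark, 4 replicates. Damaged seeds, plants, dead slugs and fecal pellets counted up to day 14; F-tests and Student-tests.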
# [2] = system: Winter wheat (Kampa race) seeds; assay: Seed germination test of treated winter wheat seeds (rolled in paper); format: in vivo; conditions: 3x50 seeds, 6 days at 22° C.
# In short: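 Seeds were disinfected with fludioxonil-containing Beret Gold (2 ml per kg seed) and coated with Sepiret® for formulations unsuitable for coating. Germination of 3×50 seeds rolled in paper was scored after 6 days at continuous 22° C. under a 16 hours light regime.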
# [3] = 3.8 ml formulated per kg seed, 2 days after sowing
# [4] = 3.8 ml formulated per kg seed, 3 days after sowing
# [5] = 3.8 ml formulated per kg seed, 7 days after sowing
# [6] = 3.8 ml formulated per kg seed, 10 days after sowing
# [7] = 3.8 ml formulated per kg seed, 14 days after sowing
# [8] = 7.5 ml formulated per kg seed, 2 days after sowing
# [9] = 7.5 ml formulated per kg seed, 3 days after sowing
# [10] = 7.5 ml formulated per kg seed, 7 days after sowing
# [11] = 7.5 ml formulated per kg seed, 10 days after sowing
# [12] = 7.5 ml formulated per kg seed, 14 days after sowing
# [13] = 11 ml formulated per kg seed, 2 days after sowing
# [14] = 11 ml formulated per kg seed, 3 days after sowing
# [15] = 11 ml formulated per kg seed, 7 days after sowing
# [16] = 11 ml formulated per kg seed, 10 days after sowing
# [17] = 11 ml formulated per kg seed, 14 days after sowing
# [18] = 15 ml formulated per kg seed, 2 days after sowing
# [19] = 15 ml formulated per kg seed, 3 days after sowing
# [20] = 15 ml formulated per kg seed, 7 days after sowing
# [21] = 15 ml formulated per kg seed, 10 days after sowing
# [22] = 15 ml formulated per kg seed, 14 days after sowing
smiles,measurement,setting,value
CC1OC(C)OC(C)OC(C)O1 (stereo not shown) [metaldehyde],number of utilizable plants after 14 days,[1]; 3.8 ml formulated per kg seed,32.3
same,percentage of damaged seeds after 14 days,[1]; 3.8 ml formulated per kg seed,7%
same,Mean number of damaged seeds per pot,[1]; [3],0
same,Mean number of dead slugs per pot,[1]; [3],0
same,Mean number fecal pellets per pot,[1]; [4],1
same,Mean number of damaged seeds per pot,[1]; [4],0.3
same,Mean number of dead slugs per pot,[1]; [4],0
same,Mean number of plants present per pot,[1]; [4],9.3
same,Mean number fecal pellets per pot,[1]; [5],4
same,Mean number of damaged seeds per pot,[1]; [5],2.5
same,Mean number of dead slugs per pot,[1]; [5],0
same,Mean number of plants present per pot,[1]; [5],34.8
same,Mean number fecal pellets per pot,[1]; [6],5
same,Mean number of damaged seeds per pot,[1]; [6],1.3
same,Mean number of dead slugs per pot,[1]; [6],0
same,Mean number of plants present per pot,[1]; [6],33.0
same,Mean number fecal pellets per pot,[1]; [7],31
same,Mean number of damaged seeds per pot,[1]; [7],2.8
same,Mean number of dead slugs per pot,[1]; [7],0.5
same,Mean number of plants present per pot,[1]; [7],34.0
same,number of utilizable plants after 14 days,[1]; 7.5 ml formulated per kg seed,34.3
same,percentage of damaged seeds after 14 days,[1]; 7.5 ml formulated per kg seed,6%
same,Mean number of damaged seeds per pot,[1]; [8],0
same,Mean number of dead slugs per pot,[1]; [8],0
same,Mean number fecal pellets per pot,[1]; [9],2
same,Mean number of damaged seeds per pot,[1]; [9],0
same,Mean number of dead slugs per pot,[1]; [9],0
same,Mean number of plants present per pot,[1]; [9],3.5
same,Mean number fecal pellets per pot,[1]; [10],4
same,Mean number of damaged seeds per pot,[1]; [10],3.5
same,Mean number of dead slugs per pot,[1]; [10],0.8
same,Mean number of plants present per pot,[1]; [10],34.3
same,Mean number fecal pellets per pot,[1]; [11],4
same,Mean number of damaged seeds per pot,[1]; [11],2.5
same,Mean number of dead slugs per pot,[1]; [11],1.0
same,Mean number of plants present per pot,[1]; [11],35.3
same,Mean number fecal pellets per pot,[1]; [12],6
same,Mean number of damaged seeds per pot,[1]; [12],2.5
same,Mean number of dead slugs per pot,[1]; [12],1.5
same,Mean number of plants present per pot,[1]; [12],35.0
same,number of utilizable plants after 14 days,[1]; 11 ml formulated per kg seed,36.3
same,percentage of damaged seeds after 14 days,[1]; 11 ml formulated per kg seed,1%
same,Mean number of damaged seeds per pot,[1]; [13],0
same,Mean number of dead slugs per pot,[1]; [13],0
same,Mean number fecal pellets per pot,[1]; [14],2
same,Mean number of damaged seeds per pot,[1]; [14],0
same,Mean number of dead slugs per pot,[1]; [14],0
same,Mean number of plants present per pot,[1]; [14],9.8
same,Mean number fecal pellets per pot,[1]; [15],2
same,Mean number of damaged seeds per pot,[1]; [15],1.0
same,Mean number of dead slugs per pot,[1]; [15],0.5
same,Mean number of plants present per pot,[1]; [15],34.0
same,Mean number fecal pellets per pot,[1]; [16],1
same,Mean number of damaged seeds per pot,[1]; [16],0.3
same,Mean number of dead slugs per pot,[1]; [16],0.5
same,Mean number of plants present per pot,[1]; [16],35.8
same,Mean number fecal pellets per pot,[1]; [17],3
same,Mean number of damaged seeds per pot,[1]; [17],0.3
same,Mean number of dead slugs per pot,[1]; [17],1.0
same,Mean number of plants present per pot,[1]; [17],36.5
same,number of utilizable plants after 14 days,[1]; 15 ml formulated per kg seed,34.5
same,percentage of damaged seeds after 14 days,[1]; 15 ml formulated per kg seed,0%
same,Mean number of damaged seeds per pot,[1]; [18],0.3
same,Mean number of dead slugs per pot,[1]; [18],0
same,Mean number fecal pellets per pot,[1]; [19],1
same,Mean number of damaged seeds per pot,[1]; [19],0
same,Mean number of dead slugs per pot,[1]; [19],0.3
same,Mean number of plants present per pot,[1]; [19],6.3
same,Mean number fecal pellets per pot,[1]; [20],3
same,Mean number of damaged seeds per pot,[1]; [20],0.8
same,Mean number of dead slugs per pot,[1]; [20],0.8
same,Mean number of plants present per pot,[1]; [20],35.0
same,Mean number fecal pellets per pot,[1]; [21],4
same,Mean number of damaged seeds per pot,[1]; [21],0
same,Mean number of dead slugs per pot,[1]; [21],0.8
same,Mean number of plants present per pot,[1]; [21],35.0
same,Mean number fecal pellets per pot,[1]; [22],5
same,Mean number of damaged seeds per pot,[1]; [22],0
same,Mean number of dead slugs per pot,[1]; [22],1.0
same,Mean number of plants present per pot,[1]; [22],35.3
same,damaged seeds relative to the control,"[1]; Example 1, 3.8, 7.5, 11 or 15 ml per kg of seed, all dosages",significantly less damaged seeds
same,plants present relative to untreated,"[1]; Example 1, all dosages, after 7 days",significantly more plants present
same,fecal pellets relative to the untreated seed,"[1]; Example 1, at each dosage and at each observation",significantly less fecal pellets
same,protection / slug controlling effect (conclusion),"[1]; Example 1, winter wheat seed treatment, dosages tested",excellent protection against slugs
same,Percentage germinated,[2]; 3.8 ml formulated per kg seed,56%
same,Percentage germinated,[2]; 7.5 ml formulated per kg seed,31%
same,Percentage germinated,[2]; 11 ml formulated per kg seed,48%
same,Percentage germinated,[2]; 15 ml formulated per kg seed,8%
